Reference: paper PMC6268995, “(E)-5-Styryl-1H-indole and (E)-6-Styrylquinoline Derivatives Serve as Probes for β-Amyloid Plaques” (Molecules, 2012)
“Also recorded” adds a separate entry of the source. Like-named read-outs stand apart in the source and are kept apart here. Values belong to the compound of their own block, whether it stands above or below them.

What was measured:
[1] = biological target: T1, Aβ1–40 aggregates (Homo sapiens, UniProt P05067); assay: Competition binding assay on Aβ1–40 aggregates using [125I]TZDM as radio-ligand; details: Aβ1–40 aggregates against [125I]TZDM; triplicate, mean ± SD
T1 construct: β-amyloid(1–40) were purchased from AnaSpec; purchased AnaSpec (San Jose, CA, USA)
T1 sequence (P05067 672-711 limits assumed): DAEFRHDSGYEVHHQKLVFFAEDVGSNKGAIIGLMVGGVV
Protocol: The lyophilized white powder of β-amyloid(1–40) were purchased from AnaSpec (San Jose, CA, USA). After reconstituted by adding basic buffer (1% NH4OH. 60–70 μL) to β-amyloid (1–40) (1 mg) aggregation of Aβ1–40 was carried out by gently dissolving Aβ1–40 (0.25 mg/mL) in a PBS buffer (pH 7.4). The solution was incubated at 37 °C for 72 h with gentle and constant shaking. Binding studies were carried out according to the procedure described previously with some modifications using [^125I]TZDM as the radiolabeled standard. […] The mixture was incubated at 37 °C for 2 h. […] Filters containing the bound ^125I ligand were counted in a γ-counter (WALLAC Wizard 1470, PerkinElmer Life Sciences, Waltham, MA, USA) with 75% counting efﬁciency. The IC50 values were determined using GraphPad Prism 5.0, and those for the inhibition constant (Ki) were calculated using the Cheng Prusoff equation: Ki = IC50/(1 + [L]/Kd).

[2] = biological target: T1, Aβ1–40 aggregates; set-up: method as in PMID 11384236; details: literature value ref 21; cited from earlier work
[3] = Partition coefficient determination (n-octanol/PBS); assay type: physicochemical; details: n-octanol / PBS 0.02 M, pH 7.4
Protocol: The determination of partition coefﬁcients of [^125I]8 and [^125I]17 was performed according to the procedure previously reported with some modifications. Ligand [^125I]8 or [^125I]17 (~5 μCi) was mixed with 3 mL each of n-octanol and PBS (0.02 M, pH 7.4) in a test tube. The test tube was vortexed for 5 min at room temperature, followed by centrifugation for 10 min at 3,000 rpm. Two weighed samples from the n-octanol (50 µL) and buffer layers (400 µL) were counted in a γ-counter. The partition coefﬁcient was expressed as the logarithm of the ratio of the counts per gram from n-octanol versus that of PBS. Samples from the n-octanol layer were repartitioned until consistent partition coefﬁcient values were obtained. The measurements were done in triplicate and repeated three times.

[4] = biological target: Aβ plaques (Homo sapiens, UniProt P05067); assay: In vitro labeling of brain sections from transgenic mouse by autoradiography; assay type: binding, transgenic model mouse (APP/PS1); details: APP/PS1, 12 months, male
Sequence of Aβ plaques (P05067 672-711 limits assumed): as above
Protocol: The brain sections mentioned above were incubated with [^125I]8 (5 µCi/100µL) for about 20 min at room temperature. Then the sections were washed with saturated Li2CO3 in 40% EtOH for 3 min and 40% EtOH for 3 min, followed by rinsing with water for 30 s. After drying, the ^125I-labeled sections were exposed to phosphorus ﬁlm for 8 h and then scanned with the phosphor imaging system (Cyclone, Packard) at the resolution of 600 dpi. The presence and localization of plaques were confirmed by the ﬂuorescent staining with thioﬂavin-S on the same sections using a Stereo Discovery V12 (Zeiss) instrument equipped with a LP 505 filter set (excitation: 405 nm).

[5] = In vivo biodistribution in normal mice; set-up: species or system KunMing normal mice; details: for Biodistribution Blood / Biodistribution Brain / Biodistribution Heart / Biodistribution Kidney / Biodistribution Liver / Biodistribution Lung / Biodistribution Muscle / Biodistribution Spleen / Biodistribution Stomach: iv injection
Protocol: In vivo biodistribution studies were performed in KunMing normal mice (female, average weight 18–22 g) and in accordance with the national laws related to the care and experiments on laboratory animal. A saline solution (100 µL) containing [^125I]8 or [^125I]17 (1 µCi) was injected directly into the tail vein of mice. The mice (n = 5 for each time point) were sacriﬁced at designated time points post-injection. The organs of interest were removed and weighed, and the radioactivity was counted with an automatic γ-counter (WALLAC Wizard 1470).

SMILES: CN(C)c1ccc(-c2nc3ccc(I)cc3s2)cc1 [TZDM, reference compound]
Ki [1]: 4.2 ± 0.4 nM | Ki [2]: 0.9 ± 0.2 nM

logD [3]: 2.52 | brain2min/brain60min ratio ([5]; index of washout rate from normal brain): 15.3 | Biodistribution Blood ([5]; 2 min): 11.91 ± 0.62 % ID/g | Biodistribution Brain ([5]; 2 min): 4.27 ± 0.49 % ID/g | Biodistribution Heart ([5]; 2 min): 5.76 ± 0.38 % ID/g | Biodistribution Kidney ([5]; 2 min): 11.66 ± 1.52 % ID/g | Biodistribution Liver ([5]; 2 min): 14.73 ± 0.66 % ID/g | Biodistribution Lung ([5]; 2 min): 10.76 ± 0.63 % ID/g | Biodistribution Muscle ([5]; 2 min): 2.64 ± 0.40 % ID/g | Biodistribution Spleen ([5]; 2 min): 4.38 ± 0.33 % ID/g | Biodistribution Stomach ([5]; 2 min): 1.23 ± 0.56 % ID/organ | Biodistribution Blood ([5]; 15 min): 12.29 ± 1.30 % ID/g | Biodistribution Brain ([5]; 15 min): 1.37 ± 0.16 % ID/g | Biodistribution Heart ([5]; 15 min): 3.70 ± 0.40 % ID/g | Biodistribution Kidney ([5]; 15 min): 14.89 ± 4.23 % ID/g | Biodistribution Liver ([5]; 15 min): 10.66 ± 0.31 % ID/g | Biodistribution Lung ([5]; 15 min): 8.22 ± 0.88 % ID/g | Biodistribution Muscle ([5]; 15 min): 2.01 ± 0.24 % ID/g | Biodistribution Spleen ([5]; 15 min): 4.21 ± 0.26 % ID/g | Biodistribution Stomach ([5]; 15 min): 4.82 ± 0.46 % ID/organ | Biodistribution Blood ([5]; 30 min): 7.64 ± 0.62 % ID/g | Biodistribution Brain ([5]; 30 min): 0.64 ± 0.11 % ID/g | Biodistribution Heart ([5]; 30 min): 2.55 ± 0.52 % ID/g | Biodistribution Kidney ([5]; 30 min): 9.46 ± 1.95 % ID/g | Biodistribution Liver ([5]; 30 min): 7.14 ± 1.13 % ID/g | Biodistribution Lung ([5]; 30 min): 5.39 ± 0.83 % ID/g | Biodistribution Muscle ([5]; 30 min): 1.25 ± 0.04 % ID/g | Biodistribution Spleen ([5]; 30 min): 3.44 ± 0.21 % ID/g | Biodistribution Stomach ([5]; 30 min): 3.50 ± 0.19 % ID/organ | Biodistribution Blood ([5]; 60 min): 4.49 ± 0.28 % ID/g | Biodistribution Brain ([5]; 60 min): 0.28 ± 0.06 % ID/g | Biodistribution Heart ([5]; 60 min): 1.59 ± 0.28 % ID/g | Biodistribution Kidney ([5]; 60 min): 4.65 ± 0.98 % ID/g | Biodistribution Liver ([5]; 60 min): 4.45 ± 0.23 % ID/g | Biodistribution Lung ([5]; 60 min): 3.28 ± 0.10 % ID/g | Biodistribution Muscle ([5]; 60 min): 0.81 ± 0.12 % ID/g | Biodistribution Spleen ([5]; 60 min): 2.44 ± 0.12 % ID/g | Biodistribution Stomach ([5]; 60 min): 1.72 ± 0.21 % ID/organ | Biodistribution Blood ([5]; 120 min): 2.93 ± 0.30 % ID/g | Biodistribution Brain ([5]; 120 min): 0.20 ± 0.08 % ID/g | Biodistribution Heart ([5]; 120 min): 1.47 ± 0.48 % ID/g | Biodistribution Kidney ([5]; 120 min): 1.93 ± 0.76 % ID/g | Biodistribution Liver ([5]; 120 min): 4.19 ± 0.61 % ID/g | Biodistribution Lung ([5]; 120 min): 2.30 ± 0.20 % ID/g | Biodistribution Muscle ([5]; 120 min): 0.61 ±0.24 % ID/g | Biodistribution Spleen ([5]; 120 min): 1.87 ± 0.28 % ID/g | Biodistribution Stomach ([5]; 120 min): 3.48 ± 0.79 % ID/organ | Biodistribution Blood ([5]; 240 min): 1.50 ± 0.13 % ID/g | Biodistribution Brain ([5]; 240 min): 0.10 ± 0.02 % ID/g | Biodistribution Heart ([5]; 240 min): 0.65 ± 0.16 % ID/g | Biodistribution Kidney ([5]; 240 min): 1.34 ± 0.36 % ID/g | Biodistribution Liver ([5]; 240 min): 3.06 ± 0.36 % ID/g | Biodistribution Lung ([5]; 240 min): 1.43 ± 0.52 % ID/g | Biodistribution Muscle ([5]; 240 min): 0.35 ± 0.09 % ID/g | Biodistribution Spleen ([5]; 240 min): 1.37 ± 0.09 % ID/g | Biodistribution Stomach ([5]; 240 min): 2.31 ± 1.44 % ID/organ
SMILES: [125I]c1ccc(/C=C/c2ccc3[nH]ccc3c2)cc1 [[^125I]8]
Autoradiography labeling of Aβ plaques [4]: intense and specific labeling of Aβ plaques; also recorded: excellent labeling of Aβ plaques in the cortex region; also recorded: clearly labeled amyloid plaques in the cortex region
